{"source": "patent US6787525B1", "about": "“Glyceryl nucleotides, method for the production thereof and their use” (priority 1998, dated 2004)", "key": {"[1]": {"test_system": "T4 lymphocytes (cell line: CEM-SS)", "test": "Toxicity control: uninfected T4 lymphocytes (CEM-SS) with compound only, XTT", "assay_type": "cell-based", "settings": "6 days", "protocol": "(§1) T4 lymphocytes (cell line: CEM-SS), which are killed by HIV within two replication cycles, are used as the test system. That which is detected is the inhibition of cell death. The compound according to the invention is dissolved in DMSO and this solution is diluted with cell culture medium in the ratio 1:100. […] All the cell cultures are examined spectrophotometrically in order to quantify production of formazan. In addition to this, individual cultures are examined microscopically in order to confirm the anti-HIV activity. The virus-infected cells which have been treated with the compound according to the invention are compared with the standard on the same plate. The in-vitro anti-HIV activity data, which were determined within the context of a National Cancer Institute Developmental Therapeutics Program, are summarized in the following table."}, "HIV": {"test_system": "HIV", "test": "In-vitro anti-HIV effect: inhibition of HIV-induced cell death of T4 lymphocytes (CEM-SS), XTT", "assay_type": "cell-based", "settings": "6 days", "protocol": "as §1"}}, "data": [{"smiles": "CCCCCCCCCCCCCCCC(=O)Nc1ccn(C2CCC(COP(=O)(O)OCC(COP(=O)(O)OCC3OC(n4cc(C)c(=O)[nH]c4=O)CC3N=[N+]=[N-])OC(=O)CCCCCCCCCCCCCCC)O2)c(=O)n1", "note": "(racemic) [NSC 704532-F/1, N^4-palmitoyl-2′,3′-dideoxycytidylyl-(5′→1)-2-O-palmitoyl-rac-glycerylyl-(3→5′)-3′-azido-2′,3′-dideoxythymidine]", "values": [{"measurement": "IC50", "setting": "[1]; read-out: 50% cell growth (IC50)", "value": "> 1000", "unit": "nM"}, {"measurement": "Percent of control uninfected", "setting": "[1]; Dose 1.00 * 10^−6 molar", "value": 119.96, "unit": "%"}, {"measurement": "Percent of control uninfected", "setting": "[1]; Dose 1.00 * 10^−7 molar", "value": 112.26, "unit": "%"}, {"measurement": "Percent of control uninfected", "setting": "[1]; Dose 1.00 * 10^−8 molar", "value": 99.64, "unit": "%"}, {"measurement": "Percent of control uninfected", "setting": "[1]; Dose 1.00 * 10^−9 molar", "value": 105.03, "unit": "%"}, {"measurement": "Percent of control uninfected", "setting": "[1]; Dose 3.16 * 10^−7 molar", "value": 112.02, "unit": "%"}, {"measurement": "Percent of control uninfected", "setting": "[1]; Dose 3.16 * 10^−8 molar", "value": 104.96, "unit": "%"}, {"measurement": "Percent of control uninfected", "setting": "[1]; Dose 3.17 * 10^−9 molar", "value": 101.22, "unit": "%"}, {"measurement": "Percent of control uninfected", "setting": "[1]; Dose 3.17 * 10^−10 molar", "value": 105.43, "unit": "%"}, {"measurement": "Percent of control infected", "setting": "HIV; Dose 1.00 * 10^−6 molar", "value": 113.49, "unit": "%"}, {"measurement": "Percent protection", "setting": "HIV; Dose 1.00 * 10^−6 molar, HIV-infected CEM-SS", "value": 114.05, "unit": "%"}, {"measurement": "Percent of control infected", "setting": "HIV; Dose 1.00 * 10^−7 molar", "value": 106.07, "unit": "%"}, {"measurement": "Percent protection", "setting": "HIV; Dose 1.00 * 10^−7 molar, HIV-infected CEM-SS", "value": 106.32, "unit": "%"}, {"measurement": "Percent of control infected", "setting": "HIV; Dose 1.00 * 10^−8 molar", "value": 23.62, "unit": "%"}, {"measurement": "Percent protection", "setting": "HIV; Dose 1.00 * 10^−8 molar, HIV-infected CEM-SS", "value": 20.44, "unit": "%"}, {"measurement": "Percent of control infected", "setting": "HIV; Dose 1.00 * 10^−9 molar", "value": 4.21, "unit": "%"}, {"measurement": "Percent protection", "setting": "HIV; Dose 1.00 * 10^−9 molar, HIV-infected CEM-SS", "value": 0.22, "unit": "%"}, {"measurement": "Percent of control infected", "setting": "HIV; Dose 3.16 * 10^−7 molar", "value": 104.16, "unit": "%"}, {"measurement": "Percent protection", "setting": "HIV; Dose 3.16 * 10^−7 molar, HIV-infected CEM-SS", "value": 104.33, "unit": "%"}, {"measurement": "Percent of control infected", "setting": "HIV; Dose 3.16 * 10^−8 molar", "value": 80.22, "unit": "%"}, {"measurement": "Percent protection", "setting": "HIV; Dose 3.16 * 10^−8 molar, HIV-infected CEM-SS", "value": 79.40, "unit": "%"}, {"measurement": "Percent of control infected", "setting": "HIV; Dose 3.17 * 10^−9 molar", "value": 14.25, "unit": "%"}, {"measurement": "Percent protection", "setting": "HIV; Dose 3.17 * 10^−9 molar, HIV-infected CEM-SS", "value": 10.68, "unit": "%"}, {"measurement": "Percent of control infected", "setting": "HIV; Dose 3.17 * 10^−10 molar", "value": 5.80, "unit": "%"}, {"measurement": "Percent protection", "setting": "HIV; Dose 3.17 * 10^−10 molar, HIV-infected CEM-SS", "value": 1.88, "unit": "%"}, {"measurement": "EC50", "setting": "HIV; HIV-infected CEM-SS, read-out: 50% protection from infection (EC5.)", "value": 17.9, "unit": "nM"}]}]}
